≈ marks a conversion by molar mass, not a printed value.
Key:
[1] = (§1) Antimicrobial activity against Bacillus sp. BS-01 expressing multiple resistance gene cfr and […] resistance gene fexA obtained from swine feces; format: functional; settings: Bacillus sp. BS-01, Feces
[2] = test system: Staphylococcus aureus; experiment: Antimicrobial activity against Staphylococcus aureus RN4220 harboring pBS-01multiple resistance gene cfr and phenolic resistance gene fexA obtained from swine feces
[3] = test system: Staphylococcus aureus; experiment: Antimicrobial activity against Staphylococcus aureus RN4220; format: functional
[4] = test system: Bacillus sp. BS-01; experiment: as §1; format: functional

`O=C(N[C@H](CO)[C@H](O)c1ccc([N+](=O)[O-])cc1)C(Cl)Cl` [CHLORAMPHENICOL] gave an MIC [1] of 32 mg/L (≈ 99 µM), an MIC [2] of 4 mg/L (≈ 12.4 µM) and an MIC [3] of 16 mg/L (≈ 49.5 µM).
`O=C(O)c1cn(C2CC2)c2cc(N3CCNCC3)c(F)cc2c1=O` [CIPROFLOXACIN] showed an MIC [1] of 8 mg/L (≈ 24.1 µM), an MIC [2] of 0.5 mg/L (≈ 1.51 µM) and an MIC [3] of 0.5 mg/L (≈ 1.51 µM).
Compound `CCC[C@@H]1C[C@@H](C(=O)N[C@@H]([C@H]2O[C@H](SC)[C@H](O)[C@@H](O)[C@H]2O)[C@H](C)Cl)N(C)C1` [CLINDAMYCIN] has an MIC [1] greater than 32 mg/L, an MIC [2] of less than 0.625 mg/L and an MIC [3] greater than 32 mg/L.
For `CC[C@H]1OC(=O)[C@H](C)[C@@H](O[C@H]2C[C@@](C)(OC)[C@@H](O)[C@H](C)O2)[C@H](C)[C@@H](O[C@@H]2O[C@H](C)C[C@H](N(C)C)[C@H]2O)[C@](C)(O)C[C@@H](C)C(=O)[C@H](C)[C@@H](O)[C@]1(C)O` [ERYTHROMYCIN], the MIC [1] was greater than 64 mg/L, the MIC [2] was 0.25 mg/L (≈ 0.341 µM) and the MIC [3] was greater than 64 mg/L.
For `CS(=O)(=O)c1ccc([C@@H](O)[C@@H](CF)NC(=O)C(Cl)Cl)cc1` [FLORFENICOL], the MIC [1] was 32 mg/L (≈ 89.3 µM), the MIC [2] was 4 mg/L (≈ 11.2 µM) and the MIC [3] was 16 mg/L (≈ 44.7 µM).
`CC(=O)NC[C@H]1CN(c2ccc(N3CCOCC3)c(F)c2)C(=O)O1` [LINEZOLID] gave an MIC [1] of 2 mg/L (≈ 5.93 µM) and an MIC [2] of 1 mg/L (≈ 2.96 µM).
Compound `CN(C)[C@@H]1C(O)=C(C(N)=O)C(=O)[C@@]2(O)C(O)=C3C(=O)c4c(O)cccc4[C@@](C)(O)[C@H]3C[C@@H]12` [TETRACYCLINE] has an MIC [1] of 32 mg/L (≈ 72 µM), an MIC [2] of 1 mg/L (≈ 2.25 µM) and an MIC [3] of 1 mg/L (≈ 2.25 µM).
`C=C[C@]1(C)C[C@@H](OC(=O)CSCCN(CC)CC)[C@]2(C)[C@H](C)CC[C@]3(CCC(=O)[C@H]32)[C@@H](C)[C@@H]1O` [TIAMULIN] gave an MIC [1] of 256 mg/L (≈ 518 µM), an MIC [2] of less than 0.5 mg/L and an MIC [3] of 32 mg/L (≈ 64.8 µM).
In the case of `CN[C@H](CC(C)C)C(=O)N[C@H]1C(=O)N[C@@H](CC(N)=O)C(=O)N[C@H]2C(=O)N[C@H]3C(=O)N[C@H](C(=O)N[C@H](C(=O)O)c4cc(O)cc(O)c4-c4cc3ccc4O)[C@H](O)c3ccc(c(Cl)c3)Oc3cc2cc(c3O[C@@H]2O[C@H](CO)[C@@H](O)[C@H](O)[C@H]2O[C@H]2C[C@](C)(N)[C@H](O)[C@H](C)O2)Oc2ccc(cc2Cl)[C@H]1O` [VANCOMYCIN], the MIC [1] is reported as 0.5 mg/L (≈ 0.345 µM).
For GENTAMICIN, the MIC [4] was 8 mg/L and the MIC [3] was 0.25 mg/L.

Reference: ChEMBL document CHEMBL1649326, “First report of the multidrug resistance gene cfr and the phenicol resistance gene fexA in a Bacillus strain from swine feces” (2010)
